In PubChem BioAssay AID489019 (Sanford-Burnham Center for Chemical Genomics, 2010):
Activity calls are given as the source filed them. How the calls were made is not given here.

Tested on: HEK-293T NF-kB-Luc cytotoxicity, resazurin fluorescence, 15 h
Test: cytotoxicity in HEK-293T NF-kB-Luc cells, dose response, cytotoxicity control for B/T-cell NF-kB inhibitor project, cell-based, uHTS hits (AID 489019)

SMILES: CC(=O)OC[C@]12CCC(C)=C[C@H]1O[C@@H]1[C@H](O)[C@@H](OC(C)=O)[C@@]2(C)[C@]12CO2
- IC50: > 80 µM (inactive)
